The test system of assay [1] is Primary human fibroblasts derived from IPF patients (LL29 cells) treated with TGF-β1. Nature of the assay: Inhibition of the fibrotic process: αSMA staining in TGF-β1 treated fibroblasts. The class given is cell-based. To be noted: Fibroblast, 96 h, LL29 fibroblasts treated with TGF-β1, 4 days; for inhibition at 10 µM: read-out: percent inhibition in brackets beside EC50 >10 μM. The method, boiled down:
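Read-out: fraction of αSMA-positive cells by high-content imaging, SYTOX-stained dead cells excluded, normalized to TGF-β1/DMSO wells. Cells got compound (10 μM–[…], 11 points) plus TGF-β1 20 ng/mL for 4 days. EC50 from triplicate curves; above 10 μM, % inhibition at 10 μM given.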

Assay [2] deals with IL-6 in human monocyte cell line (THP-1 cells). Nature of the assay: IL-6 inhibition in LPS-stimulated THP-1 cells (HTRF). The class given is cell-based. To be noted: IL-6 in LPS-stimulated THP-1 cells; for EC50: HTRF; for inhibition at 10 µM: read-out: percent inhibition in brackets beside EC50 >10 μM. The method in brief:
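Readout is the 665/620 nm HTRF ratio for secreted IL-6, normalized to DMSO wells, with EC50 from a variable-slope four-parameter fit, or % inhibition at 10 μM when above 10 μM. Cells (1% FBS, 24 h beforehand) got compound for 2 h, then LPS 500 ng/mL for 22 h at 37° C; top dose 10 μM, 0.1% DMSO.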
Background: In TR-FRET formats the signal depends on donor and acceptor labels being close together.

A word on the EC50: it is the concentration that produces a half-maximal response. A higher EC50 goes with lower potency in that assay. As a reminder, the inhibition is how much of the control response was suppressed. With `CC(C)C(=O)Nc1cncc(-c2ccc3[nH]nc(-c4nc5c(N6CCN(C)CC6)nccc5[nH]4)c3n2)c1` [Compound 233, N-(5-(3-(4-(4-Methylpiperazin-1-yl)-1H-imidazo[4,5-c]pyridin-2-yl)-1H-pyrazolo[4,3-b]pyridin-5-yl)pyridin-3-yl)isobutyramide], the EC50 in assay [1] and in assay [2] was over 10 µM throughout. Besides, the results for the inhibition at 10 µM in assay [1] and in assay [2] were 2.5% and 24%, respectively.

As to `CN1CCN(c2nccc3[nH]c(-c4n[nH]c5ccc(-c6cncc(NC(=O)C7CCCC7)c6)nc45)nc23)CC1` [Compound 246, N-(5-(3-(4-(4-Methylpiperazin-1-yl)-1H-imidazo[4,5-c]pyridin-2-yl)-1H-pyrazolo [4,3-b]pyridin-5-yl)pyridin-3-yl)cyclopentanecarboxamide], the EC50 is 5.26 µM in assay [1] and over 10 µM in assay [2]. The inhibition at 10 µM in assay [2] stood at 37.7%.

As to `CN1CCN(c2nccc3[nH]c(-c4n[nH]c5ccc(-c6cncnc6)nc45)nc23)CC1` [Compound 251, 3-(4-(4-Methylpiperazin-1-yl)-1H-imidazo[4,5-c]pyridin-2-yl)-5-(pyrimidin-5-yl)-1H-pyrazolo[4,3-b]pyridine], in assay [1], the EC50 is over 10 µM and the inhibition at 10 µM turned out to be 17.7%. Also, in assay [2], the EC50 was over 10 µM and the inhibition at 10 µM was determined as 8.3%.

`c1cncc(-c2ccc3[nH]nc(-c4nc5cnccc5[nH]4)c3n2)c1` [Compound 256, 3-(1H-Imidazo[4,5-c]pyridin-2-yl)-5-(pyridin-3-yl)-1H-pyrazolo[4,3-b]pyridine]: the EC50 in assay [1] and in assay [2] was over 10 µM each time. For the same compound, the values for the inhibition at 10 µM in assay [1] and in assay [2] were 0% and 35.5%, respectively.

For the compound `O=C(Cc1ccccc1)Nc1cncc(-c2ccc3[nH]nc(-c4nc5cnccc5[nH]4)c3n2)c1` [Compound 262, N-(5-(3-(1H-imidazo[4,5-c]pyridin-2-yl)-1H-pyrazolo[4,3-b]pyridin-5-yl)pyridin-3-yl)-2-phenylacetamide], in assay [1], the EC50 is over 10 µM and the inhibition at 10 µM turned out to be 0%. In assay [2], the EC50 was over 10 µM and the inhibition at 10 µM was 35.4%.

As for `CC(C)(C)CC(=O)Nc1cncc(-c2ccc3[nH]nc(-c4nc5cnccc5[nH]4)c3n2)c1` [Compound 268, N-(5-(3-(1H-Imidazo[4,5-c]pyridin-2-yl)-1H-pyrazolo[4,3-b]pyridin-5-yl)pyridin-3-yl)-3,3-dimethylbutanamide], the EC50 in assay [1] and in assay [2] was over 10 µM each time. In addition, the inhibition at 10 µM in assay [1] is 0%; in assay [2], 19%.

As to `O=C(Nc1cncc(-c2ccc3[nH]nc(-c4nc5cnccc5[nH]4)c3n2)c1)C1CCCCC1` [Compound 275, N-(5-(3-(1H-Imidazo[4,5-c]pyridin-2-yl)-1H-pyrazolo[4,3-b]pyridin-5-yl)pyridin-3-yl)cyclohexanecarboxamide], the EC50 in assay [1] and in assay [2] was over 10 µM throughout. Further, the inhibition at 10 µM in assay [1] came to 28.8%; in assay [2], 31.5%.

With `Cc1ccncc1-c1ccc2[nH]nc(-c3nc4c(-c5ccsc5)nccc4[nH]3)c2n1` [Compound 285, 5-(4-Methylpyridin-3-yl)-3-(4-(thiophen-3-yl)-1H-imidazo[4,5-c]pyridin-2-yl)-1H-pyrazolo[4,3-b]pyridine], the EC50 in assay [1] is 0.493 µM; in assay [2] it was 1.33 µM.

For the compound `O=C(Nc1cncc(-c2ccc3[nH]nc(-c4nc5c(-c6ccsc6)nccc5[nH]4)c3n2)c1)c1ccccc1` [Compound 291, N-(5-(3-(4-(Thiophen-3-yl)-1H-imidazo[4,5-c]pyridin-2-yl)-1H-pyrazolo [4,3-b]pyridin-5-yl)pyridin-3-yl)benzamide], in assay [1], the EC50 is over 10 µM and the inhibition at 10 µM is 0%. Besides, in assay [2], the EC50 was over 10 µM and the inhibition at 10 µM was 0%.
